Source: patent publication US12528819B2 (priority 2016, dated 2026)

Molecular target: T1, α5β2γ2 subtype GABAAR (Homo sapiens, UniProt P18507+P31644)
T1 construct: expressed in transfected cells
T1 sequence (P31644 32-462): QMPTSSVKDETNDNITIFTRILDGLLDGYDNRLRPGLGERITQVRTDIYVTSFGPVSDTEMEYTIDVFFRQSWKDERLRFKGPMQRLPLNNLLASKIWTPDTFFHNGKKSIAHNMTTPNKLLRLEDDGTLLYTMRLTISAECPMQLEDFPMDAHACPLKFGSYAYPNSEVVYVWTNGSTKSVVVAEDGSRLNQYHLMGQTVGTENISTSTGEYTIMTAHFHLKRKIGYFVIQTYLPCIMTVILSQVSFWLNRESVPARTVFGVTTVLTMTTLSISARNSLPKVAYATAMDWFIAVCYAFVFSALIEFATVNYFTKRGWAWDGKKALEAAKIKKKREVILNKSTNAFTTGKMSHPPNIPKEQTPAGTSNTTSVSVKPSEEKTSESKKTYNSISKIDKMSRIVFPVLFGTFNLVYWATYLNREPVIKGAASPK
T1 sequence (P47870 25-512 partner limits assumed): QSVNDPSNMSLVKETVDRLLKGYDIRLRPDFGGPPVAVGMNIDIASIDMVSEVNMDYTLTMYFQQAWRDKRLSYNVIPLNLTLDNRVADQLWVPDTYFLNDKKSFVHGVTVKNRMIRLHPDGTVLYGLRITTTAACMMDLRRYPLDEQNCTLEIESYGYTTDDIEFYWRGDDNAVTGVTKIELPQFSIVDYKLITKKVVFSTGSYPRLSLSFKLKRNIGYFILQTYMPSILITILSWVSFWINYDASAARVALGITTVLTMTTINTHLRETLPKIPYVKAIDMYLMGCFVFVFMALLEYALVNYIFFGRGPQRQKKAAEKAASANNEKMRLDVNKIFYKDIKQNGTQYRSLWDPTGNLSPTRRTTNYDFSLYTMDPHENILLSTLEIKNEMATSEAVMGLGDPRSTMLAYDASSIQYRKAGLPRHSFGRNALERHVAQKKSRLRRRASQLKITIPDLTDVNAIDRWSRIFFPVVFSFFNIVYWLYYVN
T1 sequence (P18507 40-467 limits assumed): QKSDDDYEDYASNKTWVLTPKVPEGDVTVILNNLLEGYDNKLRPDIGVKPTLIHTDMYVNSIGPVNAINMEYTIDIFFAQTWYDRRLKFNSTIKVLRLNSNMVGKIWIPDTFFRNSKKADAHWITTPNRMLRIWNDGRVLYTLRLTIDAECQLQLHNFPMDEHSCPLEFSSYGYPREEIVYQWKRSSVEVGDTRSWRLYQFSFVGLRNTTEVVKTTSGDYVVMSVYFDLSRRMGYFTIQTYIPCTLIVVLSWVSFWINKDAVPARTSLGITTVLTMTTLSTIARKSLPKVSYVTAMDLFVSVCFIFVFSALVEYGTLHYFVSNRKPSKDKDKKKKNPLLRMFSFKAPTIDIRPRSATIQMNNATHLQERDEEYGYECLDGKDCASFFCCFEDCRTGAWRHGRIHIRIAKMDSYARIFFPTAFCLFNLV
Experiment: Positive allosteric modulator activity: potentiation of EC20 GABA current in oocytes
Type: cell-based
Settings: read-out: GABA α5 Functional Data (potentiation), @ 100 nM, reported as ranges
Method: (B) Positive Allosteric Modulator Activity of Test Compounds on α5β2γ2 Subtype GABAAR
On day 1, 1 ng/32 nL of GABAA α5β2γ2 cDNA was injected into one oocyte. Test starts on day 2. The cDNA injected to the oocytes was a mix of alpha, beta and gamma, their ratio is 1:1:10 (by weight) and the total weight of the mixed 3 subunits to be injected in one oocyte was 1 ng in 32 nl volume. The injected oocytes can also be tested on day 3. In such case, the cDNA amount injected to the oocytes should be reduced by 20%.
Compounds of the present invention were tested using the following procedures.
• 1). 8 oocytes were placed in 8 chambers of OpusXpress and superfused with Modified Barth's Saline (MBS) at 3 mL/min. Glass electrodes back-filled with 3M KCl (0.5-3 megaohms) were used.
Control test (Diazepam or methyl 3,5-diphenylpyridazine-4-carboxylate) • 1). New oocytes was used to run new test. • 2). […] Oocytes were washed with MBS for 5-10 min. • 4). […] Itest was divided by IGABA to obtain potentiation (%). Test Compounds at Multiple Doses • 1). Repeat the above steps 1), 2) and 3) in the control test. • 2). […] Divide Itest by IGABA to obtain potentiation (%). • 3). Discard all tested oocytes, new oocytes were used and the above steps 1) and 2) were repeated to test second concentration of the same compound. Each oocyte was used for only one concentration test for a single test compound. The steps were repeated for other test compounds.

`CCOC(=O)c1ncn2c1Cc1c(C)nnn1-c1cc(OC)ccc1-2` [Compound 1] and `CCOC(=O)c1ncn2c1Cc1c(C)nnn1-c1cc(F)ccc1-2` [Compound 2] fall in the same range of activation at 0.1 µM: 20 to 50% for the first, 20 to 50% for the second.

`CCOC(=O)c1ncn2c1Cc1c(COc3ccccc3)nnn1-c1cc(OC)ccc1-2` [Compound 9] and `CCOC(=O)c1ncn2c1Cc1c(COc3cccc(OC)c3)nnn1-c1cc(OC)ccc1-2` [Compound 11] fall in the same range of activation at 0.1 µM: 20 to 50% for the first, 20 to 50% for the second.

Compared with `CCOC(=O)c1ncn2c1Cc1c(COc3ccc(F)cc3)nnn1-c1cc(OC)ccc1-2` [Compound 10], `COc1ccc2c(c1)-n1nnc(COc3ccc(F)cc3)c1Cc1c(-c3noc(C)n3)ncn1-2` [Compound 180] is higher in activation at 0.1 µM: 5 to 20% for the first, 20 to 50% for the second.

`CCOC(=O)c1ncn2c1Cc1c(Cc3ccc(Cl)cc3)nnn1-c1cc(F)ccc1-2` [Compound 45] and `CCOC(=O)c1ncn2c1Cc1c(Cc3cccnc3)nnn1-c1cc(C)ccc1-2` [Compound 111] fall in the same range of activation at 0.1 µM: 20 to 50% for the first, 20 to 50% for the second.

First: CCOC(=O)c1ncn2c1Cc1c(CN3CCCC3)nnn1-c1cc(OC)ccc1-2 [Compound 48]
Second: CCOC(=O)c1ncn2c1Cc1c(CN(CC)CC)nnn1-c1cc(OC)ccc1-2 [Compound 50]
The activation at 0.1 µM of the first is higher: 20 to 50% for the first, 5 to 20% for the second.

`CCOC(=O)c1ncn2c1Cc1c(CN(C)Cc3ccccc3)nnn1-c1cc(OC)ccc1-2` [Compound 51] and `CCOC(=O)c1ncn2c1Cn1c(Oc3ccccc3)nnc1-c1cc(OC)ccc1-2` [Compound 104] fall in the same range of activation at 0.1 µM: 5 to 20% for the first, 5 to 20% for the second.

`CCOC(=O)c1ncn2c1Cn1c(COc3ccccc3)nnc1-c1cc(OC)ccc1-2` [Compound 55] and `CCOC(=O)c1ncn2c1Cn1c(COc3ccccc3)nnc1-c1cc(F)ccc1-2` [Compound 137] fall in the same range of activation at 0.1 µM: 20 to 50% for the first, 20 to 50% for the second.

`Cc1noc(-c2ncn3c2Cc2c(Cc4ccccc4)nnn2-c2cc(F)ccc2-3)n1` [Compound 109] and `Cc1noc(-c2ncn3c2Cc2c(C)nnn2-c2cc(F)ccc2-3)n1` [Compound 110] fall in the same range of activation at 0.1 µM: 20 to 50% for the first, 20 to 50% for the second.

Compared with `Cc1nnn2c1Cc1c(C(=O)OC(C)C)ncn1-c1ccc(F)cc1-2` [Compound 112], `Cc1nnn2c1Cc1c(C(=O)OC(C)C)ncn1-c1ccccc1-2` [Compound 153] is higher in activation at 0.1 µM: 5 to 20% for the first, 20 to 50% for the second.

`Cc1nnn2c1Cc1c(C(=O)OCC(C)(C)C)ncn1-c1ccc(F)cc1-2` [Compound 113] and `Cc1nnn2c1Cc1c(C(=O)OCC(F)(F)F)ncn1-c1ccc(F)cc1-2` [Compound 114] cannot be ordered by activation at 0.1 µM: greater than 50% for the first, greater than 50% for the second.

First: COc1ccc2c(c1)-c1nnc(COc3ccccc3)n1Cc1c(C(=O)OC(C)C)ncn1-2 [Compound 120]
Second: COc1ccc2c(c1)-c1nnc(COc3ccccc3)n1Cc1c(C#N)ncn1-2 [Compound 122]
The activation at 0.1 µM of the first is higher: 20 to 50% for the first, 5 to 20% for the second.

Compared with `Cc1ncn2c1Cc1c(C)nnn1-c1ccccc1-2` [Compound 121], `Cc1noc(-c2ncn3c2Cc2c(C)nnn2-c2ccccc2-3)n1` [Compound 126] is higher in activation at 0.1 µM: 5 to 20% for the first, 20 to 50% for the second.

First: Cc1nc(-c2ncn3c2Cc2c(C)nnn2-c2ccccc2-3)no1 [Compound 127]
Second: Cc1nnn2c1Cc1c(-c3noc(C(C)C)n3)ncn1-c1ccccc1-2 [Compound 133]
The activation at 0.1 µM of the first is higher: 20 to 50% for the first, 5 to 20% for the second.

`COCc1nnc2n1Cc1c(-c3nc(C)no3)ncn1-c1ccc(OC)cc1-2` [Compound 128] and `COCc1nnc2n1Cc1c(-c3nc(C(C)C)no3)ncn1-c1ccc(OC)cc1-2` [Compound 130] fall in the same range of activation at 0.1 µM: 20 to 50% for the first, 20 to 50% for the second.

Compared with `Cc1nnn2c1Cc1c(-c3nc(C(C)C)no3)ncn1-c1ccccc1-2` [Compound 132], `Cc1nnn2c1Cc1c(-c3noc(C(C)C)n3)ncn1-c1ccc(F)cc1-2` [Compound 149] is higher in activation at 0.1 µM: 20 to 50% for the first, greater than 50% for the second.

First: Cc1nc(-c2ncn3c2Cc2c(C)nnn2-c2cc(F)ccc2-3)no1 [Compound 145]
Second: CCc1nc(-c2ncn3c2Cc2c(C)nnn2-c2cc(F)ccc2-3)no1 [Compound 155]
The activation at 0.1 µM of the first is higher: greater than 50% for the first, 20 to 50% for the second.

First: CC(C)c1nc(-c2ncn3c2Cn2c(COc4ccccc4)nnc2-c2cc(F)ccc2-3)no1 [Compound 147]
Second: COc1ccc2c(c1)-c1nnc(COc3ccccc3)n1Cc1c(-c3noc(C(C)C)n3)ncn1-2 [Compound 171]
The activation at 0.1 µM of the first is lower: 20 to 50% for the first, greater than 50% for the second.

`Cc1nc(-c2ncn3c2Cn2c(COc4ccccc4)nnc2-c2cc(F)ccc2-3)no1` [Compound 148] and `CCc1nc(-c2ncn3c2Cn2c(COc4ccccc4)nnc2-c2cc(F)ccc2-3)no1` [Compound 158] fall in the same range of activation at 0.1 µM: 20 to 50% for the first, 20 to 50% for the second.

Compared with `Cc1nnn2c1Cc1c(-c3noc(C(C)(C)C)n3)ncn1-c1ccc(F)cc1-2` [Compound 160], `COc1ccc2c(c1)-n1nnc(COc3cccc(F)c3)c1Cc1c(-c3noc(C)n3)ncn1-2` [Compound 168] is lower in activation at 0.1 µM: greater than 50% for the first, 5 to 20% for the second.

`COc1ccc2c(c1)-c1nnc(COc3ccccc3)n1Cc1c(-c3noc(C)n3)ncn1-2` [Compound 162] and `COc1ccc2c(c1)-c1nnc(COc3ccc(F)cc3)n1Cc1c(-c3noc(C)n3)ncn1-2` [Compound 163] fall in the same range of activation at 0.1 µM: 20 to 50% for the first, 20 to 50% for the second.

Compared with `COCc1nnc2n1Cc1c(-c3noc(C)n3)ncn1-c1ccc(OC)cc1-2` [Compound 164], `CCOCc1nnc2n1Cc1c(-c3noc(C(C)C)n3)ncn1-c1ccc(OC)cc1-2` [Compound 173] is higher in activation at 0.1 µM: 5 to 20% for the first, greater than 50% for the second.

First: COc1ccc2c(c1)-c1nnc(COCc3ccccc3)n1Cc1c(C#N)ncn1-2 [Compound 166]
Second: COc1ccc2c(c1)-c1nnc(COCc3cccc(F)c3)n1Cc1c(-c3noc(C(C)C)n3)ncn1-2 [Compound 183]
The activation at 0.1 µM of the first is lower: 5 to 20% for the first, 20 to 50% for the second.

`COc1ccc2c(c1)-c1nnc(COc3ccc(F)cc3)n1Cc1c(-c3noc(C(C)C)n3)ncn1-2` [Compound 172] and `COc1ccc2c(c1)-c1nnc(COc3cccc(F)c3)n1Cc1c(-c3noc(C(C)C)n3)ncn1-2` [Compound 179] cannot be ordered by activation at 0.1 µM: greater than 50% for the first, greater than 50% for the second.

`COc1ccc2c(c1)-c1nnc(COc3cccnc3)n1Cc1c(-c3noc(C(C)C)n3)ncn1-2` [Compound 176] and `CC(C)c1nc(-c2ncn3c2Cn2c(COc4cccnc4)nnc2-c2cc(F)ccc2-3)no1` [Compound 185] cannot be ordered by activation at 0.1 µM: greater than 50% for the first, greater than 50% for the second.

First: COc1ccc2c(c1)-c1nnc(COc3cccc4ccccc34)n1Cc1c(-c3noc(C(C)C)n3)ncn1-2 [Compound 177]
Second: COc1ccc2c(c1)-c1nnc(COCc3ccccc3F)n1Cc1c(-c3noc(C(C)C)n3)ncn1-2 [Compound 184]
The activation at 0.1 µM of the first is higher: greater than 50% for the first, 20 to 50% for the second.

`COc1ccc2c(c1)-c1nnc(COC3CCCC3)n1Cc1c(-c3noc(C(C)C)n3)ncn1-2` [Compound 178] and `COCc1nnc2n1Cc1c(-c3noc(C(C)C)n3)ncn1-c1ccc(F)cc1-2` [Compound 186] cannot be ordered by activation at 0.1 µM: greater than 50% for the first, greater than 50% for the second.

`COc1ccc2c(c1)-n1nnc(COc3ccccc3F)c1Cc1c(-c3noc(C)n3)ncn1-2` [Compound 181] and `COc1ccc2c(c1)-n1nnc(COc3ccccc3)c1Cc1c(-c3noc(C)n3)ncn1-2` [Compound 182] fall in the same range of activation at 0.1 µM: 20 to 50% for the first, 20 to 50% for the second.

With `CCOCc1nnc2n1Cc1c(-c3noc(C(C)C)n3)ncn1-c1ccc(F)cc1-2` [Compound 187] the activation at 0.1 µM was 20 to 50%.
